Laboratory results taken from PubChem BioAssay AID330 (DTP/NCI, 2004).
Values joined by “and” are separate entries in the source; they are usually repeats but may differ in a detail not shown here. Equal values may be shown once. Toxic doses and inconclusive results are not listed. The calls were made as follows: active = survival T/C of 150% or more; inactive = T/C below 125% in these data.

System: P388 leukemia ip, CD2F1 mice, survival T/C
Assay: NCI In Vivo Anticancer Drug Screen. Data for tumor model P388 Leukemia (intraperitoneal) in CD2F1 (CDF1) mice
Conditions: endpoint: median survival time, higher = longer survival
In short: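 Mice carrying the transplanted tumor received test compound or vehicle. Survival was recorded in each group, and the value is the treated-group measurement divided by that of the vehicle-treated control group.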

[1] = dose: 12.5 mg/kg/injection, schedule: Q01DX005 (ip), vehicle: saline with Tween-80
[2] = dose: 25.0 mg/kg/injection, schedule: Q01DX005 (ip), vehicle: saline with Tween-80
[3] = dose: 50.0 mg/kg/injection, schedule: Q01DX005 (ip), vehicle: saline with Tween-80
[4] = dose: 60.0 mg/kg/injection, schedule: Q01DX005 (ip), vehicle: saline with Tween-80
[5] = dose: 100.0 mg/kg/injection, schedule: Q01DX005 (ip), vehicle: saline with Tween-80
[6] = dose: 120.0 mg/kg/injection, schedule: Q01DX005 (ip), vehicle: saline with Tween-80
[7] = dose: 200.0 mg/kg/injection, schedule: Q01DX005 (ip), vehicle: saline with Tween-80
[8] = dose: 240.0 mg/kg/injection, schedule: Q01DX005 (ip), vehicle: saline with Tween-80
[9] = dose: 100.0 mg/kg/injection, schedule: Q04DX003 (ip), vehicle: saline with Tween-80
[10] = dose: 200.0 mg/kg/injection, schedule: Q04DX003 (ip), vehicle: saline with Tween-80
[11] = dose: 400.0 mg/kg/injection, schedule: Q04DX003 (ip), vehicle: saline with Tween-80
[12] = dose: 12.5 mg/kg/injection, schedule: Q01DX009 (ip), vehicle: Klucel (hydroxypropylcellulose) (HPC)
[13] = dose: 50.0 mg/kg/injection, schedule: Q01DX009 (ip), vehicle: Klucel (hydroxypropylcellulose) (HPC)
[14] = dose: 50.0 mg/kg/injection, schedule: Q01DX009 (ip), vehicle: saline
[15] = dose: 100.0 mg/kg/injection, schedule: Q01DX009 (ip), vehicle: saline
[16] = dose: 25.0 mg/kg/injection, schedule: Q01DX009 (ip), vehicle: saline with Tween-80
[17] = dose: 50.0 mg/kg/injection, schedule: Q01DX009 (ip), vehicle: saline with Tween-80
[18] = dose: 50.0 mg/kg/injection, schedule: Q01DX005 (ip), vehicle: Klucel (hydroxypropylcellulose) (HPC)
[19] = dose: 100.0 mg/kg/injection, schedule: Q01DX005 (ip), vehicle: Klucel (hydroxypropylcellulose) (HPC)
[20] = dose: 50.0 mg/kg/injection, schedule: Q01DX005 (ip), vehicle: saline
[21] = dose: 100.0 mg/kg/injection, schedule: Q01DX005 (ip), vehicle: saline
[22] = dose: 200.0 mg/kg/injection, schedule: Q01DX005 (ip), vehicle: saline

Measured: T/C

C[C@]12C=C[C@@]3(CC[C@@H]4[C@](C)(CO)[C@H](O)CC[C@@]4(C)[C@@H]3CC1)C2
inactive: dose: 3.5 mg/kg/injection, schedule: Q01DX005 (ip), vehicle: Klucel (hydroxypropylcellulose) (HPC) 89 % of control | dose: 7.0 mg/kg/injection, schedule: Q01DX005 (ip), vehicle: Klucel (hydroxypropylcellulose) (HPC) 100 % of control | dose: 14.0 mg/kg/injection, schedule: Q01DX005 (ip), vehicle: Klucel (hydroxypropylcellulose) (HPC) 92 % of control | dose: 28.0 mg/kg/injection, schedule: Q01DX005 (ip), vehicle: Klucel (hydroxypropylcellulose) (HPC) 96 % of control

COc1cc2c(cc1OC)CN1CCc3cc(OC)c(OC)cc3[C@@H]1C2
inactive: [1] 100 % of control | [2] 102 % of control | [3] 104 % of control and 98 % of control

Nc1nnc2nc(CC(=O)c3ccc([N+](=O)[O-])cc3)c(CC(=O)c3ccc([N+](=O)[O-])cc3)nn12
inactive: dose: 60.0 mg/kg/injection, schedule: Q01DX005 (ip), vehicle: saline 98 % of control | dose: 120.0 mg/kg/injection, schedule: Q01DX005 (ip), vehicle: saline 100 % of control | dose: 240.0 mg/kg/injection, schedule: Q01DX005 (ip), vehicle: saline 100 % of control

C/C=C1/CN2CCC34c5ccccc5N(C)C23C(OC(C)=O)CC1C4(CO)C(=O)OC (stereo not given)
inactive: dose: 2.25 mg/kg/injection, schedule: Q01DX005 (ip), vehicle: saline + Tween-80 + alcohol 120 % of control | dose: 4.5 mg/kg/injection, schedule: Q01DX005 (ip), vehicle: saline + Tween-80 + alcohol 103 % of control | dose: 9.0 mg/kg/injection, schedule: Q01DX005 (ip), vehicle: saline + Tween-80 + alcohol 106 % of control | dose: 18.0 mg/kg/injection, schedule: Q01DX005 (ip), vehicle: saline + Tween-80 + alcohol 104 % of control

COC(=O)C1C(=O)C(NC(=O)CCCCl)C(c2ccccc2)C(C(=O)OC)C1=O (stereo not given)
inactive: [1] 103 % of control | [2] 106 % of control | [3] 99 % of control | [4] 101 % of control | [5] 102 % of control | [6] 94 % of control | [7] 103 % of control | [8] 97 % of control

C[C](C)(C)[Sn]([Cl])([c]1ccccc1)[C](C)(C)C
inactive: [9] 94 % of control | [10] 104 % of control | [11] 95 % of control

Cc1cc2cc3ccc(Cl)nn3c2nn1
inactive: [2] 104 % of control | [3] 99 % of control | [5] 95 % of control | [7] 96 % of control

NC(=O)c1cc([N+](=O)[O-])cnc1Sc1ncccn1
inactive: [12] 110 % of control | dose: 25.0 mg/kg/injection, schedule: Q01DX009 (ip), vehicle: Klucel (hydroxypropylcellulose) (HPC) 118 % of control | [13] 111 % of control and 114 % of control

Cc1cc(=O)c2ccc3c(c2[nH]1)Oc1ccc2c(=O)cc(C)[nH]c2c1O3
inactive: [3] 98 % of control | [5] 101 % of control | [7] 98 % of control

c1ccc(C(Sc2ncnc3nc[nH]c23)c2ccccc2)cc1
inactive: [14] 102 % of control | [15] 102 % of control | dose: 200.0 mg/kg/injection, schedule: Q01DX009 (ip), vehicle: saline 111 % of control

O=C1C2C3C=CC(C2C(=O)N1CN1CCOCC1)C1C2C(=O)N(CN4CCOCC4)C(=O)C2C31 (stereo not given)
inactive: [16] 120 % of control

COc1ccc(NC(C)=NC(C)C)cc1
inactive: dose: 12.5 mg/kg/injection, schedule: Q01DX009 (ip), vehicle: saline with Tween-80 101 % of control and 88 % of control | [16] 92 % of control | dose: 50.0 mg/kg/injection, schedule: Q01DX009 (ip), vehicle: saline + Tween-80 + alcohol 98 % of control | [17] 100 % of control and 101 % of control

Nc1nnc2nc(C(C(=O)c3ccc(O)cc3O)c3nc4nnc(N)n4[nH]c3=O)c(=O)[nH]n12
inactive: [4] 102 % of control | [6] 98 % of control | [8] 104 % of control

O=c1cc2n(c(=O)n1-c1ccccc1)CCCC2
inactive: [4] 102 % of control | [6] 100 % of control | [8] 103 % of control

CC1=C[C@H]2C[C@]3(C)CC[C@H]4[C@H](C)C(=O)O[C@@H]4[C@@]13OO2
inactive: dose: 0.75 mg/kg/injection, schedule: Q01DX005 (ip), vehicle: Klucel (hydroxypropylcellulose) (HPC) 107 % of control | dose: 1.5 mg/kg/injection, schedule: Q01DX005 (ip), vehicle: Klucel (hydroxypropylcellulose) (HPC) 103 % of control | dose: 3.0 mg/kg/injection, schedule: Q01DX005 (ip), vehicle: Klucel (hydroxypropylcellulose) (HPC) 90 % of control | dose: 6.0 mg/kg/injection, schedule: Q01DX005 (ip), vehicle: Klucel (hydroxypropylcellulose) (HPC) 111 % of control

O=C(N/N=C/c1ccccn1)c1ccccc1[O-].O=C(N/N=C/c1ccccn1)c1ccccc1[O-].[Co+2]
inactive: [18] 113 % of control | [19] 117 % of control

CCC[P+](C)(CCC#N)c1ccccc1 (stereo not given)
inactive: [12] 108 % of control

C[CH2][GeH][CH2]C.C[CH2][Ge]([CH2]C)[CH2]C
inactive: [14] 93 % of control | [15] 90 % of control

Cn1c(N)c(C(=O)/C=C/c2ccccc2)c(=O)[nH]c1=O
inactive: [18] 95 % of control | [19] 88 % of control | dose: 200.0 mg/kg/injection, schedule: Q01DX005 (ip), vehicle: Klucel (hydroxypropylcellulose) (HPC) 88 % of control

OCCCOCCCO
inactive: [20] 109 % of control | [21] 101 % of control | [22] 114 % of control

O=C(Nc1cccc([N+](=O)[O-])c1)OCc1ccc2c(c1)OCO2
inactive: [4] 91 % of control | [6] 90 % of control

Cc1cc(NC(=O)SCCOC(=O)COc2ccc(Cl)cc2)ccc1Cl
inactive: [9] 100 % of control | [10] 95 % of control | [11] 90 % of control

CC(C)C(=O)C(O)C(C)C (stereo not given)
inactive: [20] 92 % of control | [21] 103 % of control | [22] 100 % of control

CS(=O)(=O)OCC(Br)C(Br)COS(C)(=O)=O (stereo not given)
inactive: [13] 107 % of control | dose: 100.0 mg/kg/injection, schedule: Q01DX009 (ip), vehicle: Klucel (hydroxypropylcellulose) (HPC) 87 % of control

O=c1c2ccccc2nc(-c2ccc(Cl)cc2)n1O
inactive: [3] 92 % of control | [5] 88 % of control

O=C1C=C2SCCN2C(=O)C1
inactive: [16] 101 % of control | [17] 92 % of control | dose: 100.0 mg/kg/injection, schedule: Q01DX009 (ip), vehicle: saline with Tween-80 97 % of control | dose: 200.0 mg/kg/injection, schedule: Q01DX009 (ip), vehicle: saline with Tween-80 99 % of control

O=C1NC2(CCCCC2)C(=O)N1CCN1C(=O)NC2(CCCCC2)C1=O
inactive: dose: 0.75 mg/kg/injection, schedule: Q01DX009 (ip), vehicle: saline 104 % of control | dose: 1.5 mg/kg/injection, schedule: Q01DX009 (ip), vehicle: saline 91 % of control | dose: 3.0 mg/kg/injection, schedule: Q01DX009 (ip), vehicle: saline 106 % of control | dose: 6.0 mg/kg/injection, schedule: Q01DX009 (ip), vehicle: saline 118 % of control | dose: 12.0 mg/kg/injection, schedule: Q01DX009 (ip), vehicle: saline 106 % of control

C1=Cc2ccccc2CS1
inactive: dose: 25.0 mg/kg/injection, schedule: Q01DX009 (ip), vehicle: other 106 % of control | dose: 50.0 mg/kg/injection, schedule: Q01DX009 (ip), vehicle: other 116 % of control | dose: 100.0 mg/kg/injection, schedule: Q01DX009 (ip), vehicle: other 108 % of control | dose: 200.0 mg/kg/injection, schedule: Q01DX009 (ip), vehicle: other 88 % of control | dose: 400.0 mg/kg/injection, schedule: Q01DX009 (ip), vehicle: other 88 % of control
